The results in this text go back to patent US8309546B2, “Morpholinopurine derivatives” (Daiichi Sankyo Company, Limited, priority 2008, dated 2012).

For experiment [1], the target named is T1, human mTOR (His-tagged mTOR (1362C)) (Homo sapiens, UniProt P42345).
T1 construct: the 1362 to 2549 amino acid portion on the C terminus side of human mTOR; His tag (N); made in house
The experiment is described as follows: mTOR kinase activity inhibition assay. The format is biochemical. The settings on record: HTRF, read-out: IC50 against mTOR. Put shortly: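 Crude His-tagged mTOR (aa 1362–2549) from stable HEK293 cells, with 8 μg/ml biotinylated peptide in 50 mM HEPES pH 7.5, 20 mM MnCl2; compound diluted in 20 μM ATP solution, reaction 3 h at room temperature. Phospho-peptide detected by HTRF (anti-phospho-S6K Thr389 cryptate/streptavidin-XL665, overnight at 4°C), 665/620 nm ratio. IC50 derived from curve fit of % inhibition.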
In general terms: In TR-FRET formats the signal depends on donor and acceptor labels being close together.

For experiment [2], the system named is human colon cancer cell strain HT29. The experiment is described as follows: Cell growth inhibition test (MTT), HT29. The settings on record: HT-29, 72 h, HT29, 3 days culture, read-out: concentration exhibiting anti-cell effect (GI50). The format is cell-based. The method, boiled down: (§1)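 Living cells were counted by MTT reduction (4 h; formazan dissolved in DMSO, A540) after 3-day compound exposure at 37° C, 5% CO2. Seeding was 5000 (AN3CA), 1000 (IGROV1) or 5000 (HT29) cells/well, dosing the following day. Growth rate T/C % used pre-dose baseline; GI50 interpolated at 50%.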

The subject of experiment [3] is human endometrial cancer cell strain AN3CA. The experiment is described as follows: Cell growth inhibition test (MTT), AN3CA. Format: cell-based. The settings on record: AN3-CA, 72 h, 3 days culture, read-out: concentration exhibiting anti-cell effect (GI50). The method, boiled down:
as §1

Bounds are passed on as bounds.

T1 sequence (P42345 1362-2549): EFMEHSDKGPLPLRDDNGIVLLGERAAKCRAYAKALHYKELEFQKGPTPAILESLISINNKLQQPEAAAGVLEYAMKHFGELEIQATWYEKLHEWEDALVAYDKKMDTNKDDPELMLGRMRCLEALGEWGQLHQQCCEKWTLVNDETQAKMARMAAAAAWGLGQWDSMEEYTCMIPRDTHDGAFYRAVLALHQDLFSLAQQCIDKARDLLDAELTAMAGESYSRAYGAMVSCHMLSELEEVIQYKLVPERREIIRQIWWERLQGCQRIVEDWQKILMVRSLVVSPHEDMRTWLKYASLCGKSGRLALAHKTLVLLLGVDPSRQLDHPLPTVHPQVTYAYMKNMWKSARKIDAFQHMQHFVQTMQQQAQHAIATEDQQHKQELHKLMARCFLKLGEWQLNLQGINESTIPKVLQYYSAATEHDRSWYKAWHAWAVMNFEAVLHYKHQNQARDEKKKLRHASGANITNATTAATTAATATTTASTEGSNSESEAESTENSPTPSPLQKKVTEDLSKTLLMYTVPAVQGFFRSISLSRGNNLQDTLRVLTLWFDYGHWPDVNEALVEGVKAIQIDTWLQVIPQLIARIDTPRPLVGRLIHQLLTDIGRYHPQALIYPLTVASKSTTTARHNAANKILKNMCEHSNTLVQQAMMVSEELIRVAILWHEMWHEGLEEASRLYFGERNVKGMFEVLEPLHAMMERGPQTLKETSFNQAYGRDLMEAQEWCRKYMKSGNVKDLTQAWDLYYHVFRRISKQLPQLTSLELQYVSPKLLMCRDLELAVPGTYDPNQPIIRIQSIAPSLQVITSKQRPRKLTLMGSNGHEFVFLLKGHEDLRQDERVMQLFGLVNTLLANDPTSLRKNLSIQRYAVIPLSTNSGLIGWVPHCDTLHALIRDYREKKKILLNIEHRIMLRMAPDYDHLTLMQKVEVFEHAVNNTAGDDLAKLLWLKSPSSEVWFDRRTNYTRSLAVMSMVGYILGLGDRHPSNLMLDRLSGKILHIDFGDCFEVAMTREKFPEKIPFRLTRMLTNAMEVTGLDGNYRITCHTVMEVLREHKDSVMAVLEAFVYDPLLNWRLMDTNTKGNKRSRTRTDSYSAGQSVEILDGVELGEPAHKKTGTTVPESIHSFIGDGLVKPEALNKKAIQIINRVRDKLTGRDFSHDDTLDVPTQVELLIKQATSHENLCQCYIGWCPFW

`CC(=O)N1CCN(c2nc3c(N4CCOCC4)nc(-c4cnc(N)nc4)nc3n2CC2CC2)CC1` [Example 10, 5-[8-(4-Acetylpiperazin-1-yl)-9-(cyclopropylmethyl)-6-morpholin-4-yl-9H-purin-2-yl]pyrimidin-2-amine]: the IC50 (usually the concentration at which inhibition is half-maximal) in experiment [1] lay within 0.01 to 0.03 µM. Besides, the GI50 in experiment [2] and in experiment [3] was at most 5 µM throughout.

For `C[C@H](O)C(=O)N1CCN(c2nc3c(N4CCOCC4)nc(-c4cnc(N)nc4)nc3n2CC2CC2)CC1` [Example 88, (2S)-1-{4-[2-(2-Aminopyrimidin-5-yl)-9-(cyclopropylmethyl)-6-morpholin-4-yl-9H-purin-8-yl]piperazin-1-yl}-1-oxopropan-2-ol], the IC50 in experiment [1] was in the range of 0.03 to 0.1 µM. In addition, the GI50 in experiment [2] and in experiment [3] was at most 5 µM in each case.

Take `CC(C)Cn1c(N2CCN(C(=O)[C@H](C)O)[C@H](C)C2)nc2c(N3CCOCC3)nc(-c3cnc(N)nc3)nc21` [Example 103, (2S)-1-{(2R)-4-[2-(2-Aminopyrimidin-5-yl)-9-isobutyl-6-morpholin-4-yl-9H-purin-8-yl]-2-methylpiperazin-1-yl}-1-oxopropan-2-ol]: in experiment [1], the IC50 was 0.01 to 0.03 µM. The GI50 in experiment [2] and in experiment [3] was at most 5 µM in each case.

For `CS(=O)(=O)N1CCN(c2nc3c(N4CCOCC4)nc(-c4cnc(N)nc4)nc3n2CC(F)F)CC1` [Example 64, 5-{9-(2,2-Difluoro-ethyl)-8-[4-(methylsulfonyl)piperazin-1-yl]-6-morpholin-4-yl-9H-purin-2-yl}pyrimidin-2-amine], in experiment [1], the 50% inhibitory concentration (IC50) is below 0.01 µM. The GI50 in experiment [2] and in experiment [3] was at most 5 µM throughout.

With `CC(=O)N1CCN(c2nc3c(N4CCOCC4)nc(-c4cnc(N)nc4)nc3n2CC(C)C)CC1` [Example 2, 5-[8-(4-Acetylpiperazin-1-yl)-9-isobutyl-6-morpholin-4-yl-9H-purin-2-yl]pyrimidin-2-amine], in experiment [1], the IC50 fell in the range of 0.01 to 0.03 µM. For the same molecule, the GI50 in experiment [2] and in experiment [3] was at most 5 µM each time.
